Data set [1] is described as follows: Cysteine and histidine challenge of 99mTc complexes (RP-HPLC). It is filed as physicochemical. The method, then: The stability of complexes 5b and 7b was studied in their reaction mixture and after isolation by HPLC for up to 24 h.
Cysteine and histidine challenge: Histidine (100 µL, 1 × 10^−2 M) or cysteine (100 µL, 1 × 10^−2 M) solution in 0.1 M PBS was mixed with 100 µL (50–120 MBq) of the RP-HPLC isolated ^99mTc complexes in 0.1 M PBS (800 µL). The mixtures were incubated at 37 °C for up to 24 h and analyzed by RP-HPLC at 1, 6, and 24 h intervals.

The nature of data set [2]: Lipophilicity, shake-flask distribution coefficient. Conditions: n-octanol/0.1 M phosphate buffer pH 7.4. It is filed as physicochemical. The protocol: The pharmacokinetic profile of the studied compounds could be affected by their lipophilicity, expressed as the logarithm of the distribution coefficient (log Do/w). The lipophilicity of complexes 5b and 7b was determined in physiological conditions (n-octanol/0.1 M phosphate buffer pH 7.4). […] The presence of the pyridine ring in the chemical structure of complex […] increases the log D7.4 value, as expected.
The distribution coefficient of the 5b and 7b complexes was determined with the shake-flask method. The RP-HPLC isolated ^99mTc complexes (20 μL, ~75 kBq) were mixed with 2 mL of 1-octanol and 2 mL of phosphate buffer solution (PBS, 0.1 M, pH 7.4) in a centrifuge tube. The mixture was vortexed at room temperature for 2 min and centrifuged at 5000 rpm for 10 min. The radioactivity of each phase (200 μL) was counted in a gamma counter. The distribution coefficient was calculated by dividing the cpm/mL in the 1-octanol phase by those in the buffer, and the results were expressed as logD7.4. Each experiment was run in triplicate.

We go through 1 molecule from article PMC9960821, “Evaluation of Rhenium and Technetium-99m Complexes Bearing Quinazoline Derivatives as Potential EGFR Agents” (Molecules, 2023).

SMILES strings stand for the structures.

As to `O=C([O-])CN(CCCCCC(=O)Nc1ccc2ncnc(Nc3cccc(Br)c3)c2c1)Cc1ccccn1.[99Tc+].[C-]#[O+].[C-]#[O+].[C-]#[O+]` [Compound 5b, fac-[^99mTc(NNO)(CO)3]], the “Stability after incubation with excess of histidine and cysteine” value in data set [1] (24 h, molar ratio 1/1000, HPLC) was > 95%. For the same molecule, in data set [1] (excess cysteine, 37 °C), the “%RCP in Cysteine for 24 h” value is on record as 99 ± 1%. In data set [1] (excess histidine, 37 °C), the “%RCP in Histidine for 24 h” value amounted to 99 ± 1%. Also, the “log D7.4” value in data set [2] is given as 3.27 ± 0.25.
